Assay results taken from patent publication US9278086B2, “Combination therapy and uses thereof for treatment and prevention of parasitic infection and disease” (The Royal Institution for the Advancement of …, priority 2010, dated 2016).

Tests used:
Format in all cases: in vivo
[1] = tested on: Plasmodium chabaudi; experiment: Progression of P. chabaudi infection (10^6 pRBC i.v.) in pantetheinase-sufficient B6 mice; settings: Cys 60 mg/kg added to Art
Method: (§1) A/J and C57BL/6 (B6) mice were purchased from the Jackson Laboratories (Bar Harbor, Me.) and were housed at McGill University according to the guidelines of the Canadian Council on Animal Care. An LDH virus-free isolate of P. chabaudi AS was maintained by weekly passage in A/J mice. Mice were infected intravenously into the tail vein (i.v.) with 10^6 or 10^7 pRBC suspended in pyrogen-free saline. Following infection, the percentage of pRBC was determined daily on thin blood smears stained with Dif-Quik™ (Dade Behring, Newark, Del.), as described (Fortin A, et al. (2001) Proc Natl Acad Sci USA 98: 10793-10798).
Cysteamine hydrochloride (Sigma, Burlington ON) was prepared in PBS. Chloroquine hydrochloride, artesunate and dihydroartemisinin were provided by Dafra Pharmaceuticals; chloroquine was prepared in PBS, artesunate and DHA were prepared in 5% sodium bicarbonate and diluted in water to appropriate concentrations. All solutions were prepared fresh daily, filter sterilized and injections were performed intra-peritoneally (i.p) or subcutaneously (s.c.) for 4 days or according to treatment regimen. Mice were weighed prior to treatment to determine appropriate doses and injection volumes ranged from 100-400 μL per mouse. In the case of animals treated with two drugs, artemisinin derivatives were administered first (due to the short half life of cysteamine), followed by cysteamine 5-10 minutes later on alternate sides. Untreated control animals were injected with PBS alone.
To investigate whether the effects on parasite burden over the course of infection would also be observed with a pantetheinase-sufficient mouse strain, a similar experiment was performed using female B6 mice. Groups of mice were infected with 10^6 P. chabaudi pRBC i.v. and treated with PBS, 1 mg/kg or 30 mg/kg of Art, or 1 mg/kg or 30 mg/kg of Art plus 60 mg/kg of Cys for 4 days. […] As in A/J mice, the effect of Cys addition to 1 mg/kg of Art has a clear effect on early parasite replication at day 6 (FIG. 6B). […] B6 mice were able to completely clear parasite burdens and survive the infection, even in the control PBS-treated group.

[2] = tested on: Plasmodium berghei ANKA; experiment: Plasmodium berghei ANKA infection (cerebral malaria model) in C57BL/6J mice, parasitemia and survival; settings: Cysteamine alone
Method: FIGS. 8A and 8B show the results of two independent experiments on the effect of cysteamine and artesunate combinations on the progression of Plasmodium berghei ANKA infection (parasitemia). Groups of 5 adult 18-20 g C57BL/6J males and females were infected intravenously with 1×10^6 erythrocytes parasitized with P. berghei ANKA at time “0”. Two hours later, mice were injected i.p with either Artemisinin alone or with Artemisinin/Cysteamine combinations (at the indicated concentrations in mg/kg body weight). In the case of the latter, Artemisinin was injected first in one quadrant, and cysteamine was injected second, 10-15 minutes later in another quadrant. The drug treatment was further repeated at days 1, 2 and 3 post-infection to emulate the standard 4-day test used in anti-malarial drug discovery. Starting at day 5, blood was collected, thin blood smears were prepared, and parasitemia was determined (400 erythrocytes counted, expressed as percentage parasitized erythrocytes). Error bars show standard deviations on the mean; and
FIGS. 9A and 9B show the results of two independent experiments on the effect of cysteamine and artesunate combinations on the survival of Plasmodium berghei ANKA-infected mice. Infection and drug administration were performed as described above for FIGS. 8A and 8B. Animals were monitored for the appearance and severity of cerebral symptoms (CM phase, shown as rectangle in graph), and moribund animals were euthanized, and time of death was recorded.
Intravenous infection with Plasmodium berghei ANKA is an accepted mouse model of cerebral malaria (CM) (Hunt, N. H. et al. 2006, Int. J. Parasitol. 36: 569-582). The infection causes the following pathology. First, there is appearance of blood parasitemia, starting at days 3 or 4, which can go up to 10% by day 7-8. Starting at day 5-6, there is emergence of cerebral symptoms caused by permeability of the blood brain barrier, concomitant to trapping of parasitized red cells in the microvasculature and acute pathological host inflammatory response in situ. This cerebral phase quickly progresses from tremors, to paralysis, to coma, and is uniformly lethal in mice by days 8-10. In this model, progress of infection and possibly drug effects may be monitored by a) appearance and intensity of blood parasitemia (between days 5-8), b) appearance of cerebral symptoms, and c) lethality.

[3] = tested on: Plasmodium chabaudi; experiment: P. chabaudi infection (10^5 pRBC i.v.) in A/J mice, continuous daily cysteamine treatment, blood parasitemia
Method: as §1, with “Mice were infected intravenously into the tail vein (i.v.) with 10^6 or 10^7 pRBC suspended in pyrogen-free saline.” left out
Cysteamine hydrochloride (Sigma, Burlington ON) was prepared in PBS. […]
To gain more insight into the anti-malarial effect of cysteamine (Cys) in vivo, the pharmacokinetic characteristics (plasma level) of Cys administered through the sub-cutaneous (s.c.) and intra-peritoneal (i.p) routes was compared. […] Parasitemia was monitored on thin blood smears at days 5, 6 and 7 following infection (FIG. 1B). […]
It was next determined whether Cys at equivalent dosing to that used in the clinical treatment of nephropathic cystinosis in humans has an effect on the course and severity of P. chabaudi infection in mice. […] The efficacy of different regimens of 50 mg/kg Cys s.c. (number of injections, interval between injections) on replication of P. chabaudi in vivo was evaluated. […]

## NCCS [Cysteamine]
[1]
  recrudescent parasitemia around day 14: eliminated the appearance of recrudescent parasitemia
[2]
  effect on survival of P. berghei-infected animals: minor positive effect on survival
[3]; 120 mg/kg Cys daily, either s.c. or i.p., day 5 and 6, p<0.01
  reduction in parasitemia relative to saline injected controls: 50%
[3]; Cys s.c. daily, all regimens: 1×150 mg/kg, 3×50 or 4×50 mg/kg at 2 hr, 3×50 mg/kg at 1 hr intervals (strongest), days 5, 6, 7
  reduction of blood parasitemia: 40-67%
